The results in this text go back to patent US10022356B2, “Compounds for treatment of cancer” (UNIVERSITY OF TENNESSEE RESEARCH FOUNDATION, priority 2013, dated 2018).

Where “and” joins values, the source holds several entries; their conditions need not be identical. Identical values can stand only once.

One data set deals with DU145/TXR. Nature of the data set: Growth inhibition, DU145/TXR. It counts as cell-based. The settings on record: RABI, Table 10A; read-out: DU145/TXR (nM), inhibitory effects.
Another data set deals with OVCAR-8. Description: Growth inhibition, OVCAR-8. It is filed as cell-based. The settings on record: Homo sapiens, OVCAR-8, read-out: IC50 (nM), OVCAR-8.
The test system of the next data set is B16-F1 melanoma cells. Description: B16-F1 melanoma colony formation assay in soft agar. It counts as cell-based, mouse. The settings on record: 14 days; tested 20, 100, 500 nM. As for the experimental part:
B16-F1 melanoma cells were plated at a colony-forming density (2000 cells per well on six-well plates) on top of 0.8% base agar. Cells were grown in 0.4% agar together with DMEM medium supplemented with fetal bovine serum and an antibiotic-antimycotic solution at 37° C. in an atmosphere of 95% air and 5% CO2. […] Compounds were added to the media from 1 mM DMSO stock solutions, and a corresponding dilution of DMSO was used as control. Cells were grown for 14 days. Plates were photographed, and the number of colonies was measured by Artek 880 Automated Colony Counter (Artek Systems Corporation, Farmingdale, N.Y.).

The next data set relates to B16-F1 melanoma. Nature of the data set: B16-F1 melanoma tumors in C57/BL mice. It is filed as in vivo. The settings on record: after 13 days of treatment, C57BL/6 mice.
For data set [1], the system named is A375 human melanoma xenograft. Description: A375 human melanoma xenograft in SHO nude mice. It is filed as in vivo. The settings on record: 25 mg/kg; after 31 days of treatment. On the procedure: FIG. 19 depicts in vivo study of ABI compounds. […] C57BL/6 mice bearing B16-F1 melanoma allograft (n=5 per group). Each mouse received 0.5×10^6 cells by s.c. injection into the flank. 30 μL i.p. daily treatments were started when tumor size reached ˜100 mm^3. […] SHO nude mice bearing an A375 human melanoma xenograft (n=5 per group). Each mouse received 2.5×10^6 cells by s.c. injection into the flank. 30 μL i.p. daily treatments were started when the tumor size reached ˜150 mm^3. Control, vehicle solution only; points, means; bars, SD. DTIC, (5-(3,3,-dimethyl-1-triazenyl)-imidazole-4-carboxamide, dacarbazine.
Average body weight of all groups increased slightly throughout the experiment period.

Data set [2] relates to metastasis of melanoma to the lungs. Nature of the data set: Melanoma lung metastasis model in mice. It is filed as in vivo. The settings on record: i.p. injection 5 days per week for 2 weeks (FIG. 28).
Source text: Panel A: Representative photos of lungs with melanoma nodules (black dots, n=8 per group). Treatment was i.p. injection 5 days per week for 2 weeks. Panel B: Number of melanoma nodules on each lung. […] Panel C: Mouse body weight changes during the experiment. Points: means; bars: SD. Control: vehicle solution only.
For data set [3] the following is noted: ICR, Sprague-Dawley, beagle, mouse, in vivo.
Procedure: All compounds (10 mg/kg) were dissolved in DMSO/PEG300 (1/9) and administered by a single intravenously (i.v.) injection (50 μL) into the tail vein.
A further data set can be described thus: in vivo. The settings on record: nude, mouse, 20 mg/kg.
A short description of data set [4]: Metabolic stability in human liver microsomes. The settings on record: Table 13A; mean from duplicate studies. A general note: Microsomes from liver hold many membrane-bound enzymes, among them those of drug oxidation.
For data set [5], the system named is A375. Nature of the data set: MTS cell proliferation assay on parental A375 cells. It is filed as cell-based. The settings on record: Homo sapiens, A-375, read-out: IC50 value for proliferation inhibition. (In general: Tetrazolium dyes change colour on reduction, which living cells bring about.)
Procedure: Compounds were dissolved in dimethyl sulfoxide (DMSO, Sigma-Aldrich, St. Louis, Mo.) to make stock solution of 10 mM. […] All cell lines were authenticated prior to use for this study. Cells were cultured in DMEM medium (Mediatech, Inc., Manassas, Va.), supplemented by 10% fetal bovine serum (FBS, Atlanta Biologicals, Lawrenceville, Ga.), 1% antibiotic/antimycotic mixture (Sigma-Aldrich, St. Louis, Mo.) and 5 μg/mL bovine insulin (Sigma-Aldrich, St. Louis, Mo.).
Cell proliferation viability was investigated using MTS or SRB assay as described previously. […] Drug concentrations were selected based on the IC50 value of each drug tested from a pilot study.
Data set [6] deals with A375RF21. Nature of the data set: MTS cell proliferation assay on vemurafenib-resistant A375RF21 cells. It is filed as cell-based. The settings on record: Homo sapiens, read-out: IC50 value for proliferation inhibition.
Source text: Cell proliferation viability was investigated using MTS or SRB assay as described previously. An in vitro study of the combination of vemurafenib and the tubulin inhibitors was designed and conducted using CalcuSyn software (Biosoft, Ferguson, Mo.) with five duplicates of each set of treatment. Drug concentrations were selected based on the IC50 value of each drug tested from a pilot study.
Data set [7] has as its system A375RF21. Description: Annexin V/propidium iodide apoptosis detection in A375RF21 cells. It is filed as cell-based, human. The settings on record: 48 hours incubation.
A further data set relates to A375RF21 xenograft. Nature of the data set: A375RF21 tumor xenograft in nude mice. It counts as in vivo. On the procedure: Seven to eight week old male nude mice were purchased from Charles River Laboratories International, Inc. (Wilmington, Mass.). A375RF21 cells were suspended in ice-cold phenol red-free and FBS-free DMEM medium without FBS and mixed with high concentration Matrigel (BD Biosciences, San Joes, Calif.) at ratio of 1:1 right before use. 100 μL of this mixture containing 3×10^6 cells were injected subcutaneously (s.c.) to the left-side dorsal flank of each mouse. One week after the inoculation, the mice were randomized into four groups (n=7 for the initial low dose and n=5 for subsequent high dose drug combination) and the treatments started. […] Vehicle control group was i.p. injected with same volume (100 μL) of PEG300 at the same dosing frequency. At the end of the experiments, mice were euthanized and tumor tissue were isolated, weighted and then fixed in 10% buffered formalin phosphate solution.
Tumor volume and body weight of each mouse were evaluated three times a week.

The test system of the next data set is LNCaP. Nature of the data set: SRB cytotoxicity assay, LNCaP. It is filed as cell-based, human. The settings on record: Reversed aryl benzoyl imidazole (RABI), Tables 10A/10B; read-out: LNCaP (nM), inhibitory effects. (In general: The SRB assay estimates cell density from bound dye.)
A further data set deals with Du 145. Nature of the data set: SRB cytotoxicity assay, Du 145. It counts as cell-based, human. The settings on record: RABI, Tables 10A/10B; read-out: DU145 (nM), inhibitory effects.
The next data set concerns PPC-1. Nature of the data set: SRB cytotoxicity assay, PPC-1. It is filed as cell-based, human. The settings on record: RABI, Tables 10A/10B; read-out: PPC1 (nM), inhibitory effects.
The test system of a further data set is MDA-MB-435. Description: SRB growth inhibition, MDA-MB-435 (sensitive parent melanoma line). It counts as cell-based, human. The settings on record: Tables 11C, 11D; read-out: IC50 ± SEM (μm), MDA-MB-435.
For a further data set, the system named is MDA-MB-435/LCC6MDR1. Description: SRB growth inhibition, multidrug-resistant MDA-MB-435/LCC6MDR1. The settings on record: Tables 11C, 11D; read-out: IC50 ± SEM (μm), MDA-MB-435/LCC6MDR1. It is filed as cell-based.
For a further data set, the system named is PC-3. Nature of the data set: SRB cytotoxicity assay, PC-3. The settings on record: read-out: PC3 (nM), inhibitory effects; RABI, Tables 10A/10B.
The subject of a further data set is B16-F1. Description: SRB cell culture cytotoxicity assay, B16-F1. It counts as cell-based, mouse. The settings on record: 48 h.
In the next data set the test system is WM164. Description: SRB cell culture cytotoxicity assay, WM-164. It counts as cell-based, human. The settings on record: 48 h.
Data set [8] relates to A375. Nature of the data set: SRB cell culture cytotoxicity assay, A375. It counts as cell-based, human. The settings on record: Tables 11C, 11D; read-out: IC50 ± SEM (μm), A375.
The mark [9] stands for this setting: vemurafenib 30 mg/kg, 12da 15 mg/kg, n=5.

In the case of `COc1cc(C(=O)c2nc(-c3ccc(Cl)cc3)c[nH]2)cc(OC)c1OC` [70c], the IC50 in the data set on DU145/TXR was determined as 121 nM.
Consider `O=C(c1ccc(F)cc1)c1c[nH]c(-c2ccc(Cl)cc2)n1` [12fb, (2-(4-chlorophenyl)-1H-imidazol-4-yl)(4-fluorophenyl)methanone], for which, in the data set on OVCAR-8, the IC50 is 47 nM. The “concentration showing effective inhibition of B16-F1 colony formation” value in the data set with B16-F1 melanoma cells came out at 100 nM. The “melanoma tumor growth inhibition (TGI value)” value in the data set on B16-F1 melanoma (15 mg/kg) was 32%; in the data set on B16-F1 melanoma (45 mg/kg), 82%; in data set [1], 69%. Moreover, the “metastasis of melanoma to the lungs” value in data set [2] is on record as “inhibition”.
Turning to `COc1cc(C(=O)c2csc(Nc3ccc4[nH]ccc4c3)n2)cc(OC)c1OC` [compound 55], in [3], the “oral bioavailability rates among three species” value was 24-36%. This compound also had a Kp in the data set “in vivo” of 3.2. Further, the “half-life in human liver microsomes” value in [4] is reported as 28 min.
As for `COc1cc(C(=O)c2c[nH]c(-c3ccc(C)cc3)n2)cc(OC)c1OC` [12da, (2-(p-tolyl)-1H-imidazol-4-yl)(3,4,5-trimethoxyphenyl)methanone], the IC50 in the data set with A375 [5] was found to be 10.7 ± 1.5 nM; in the data set on A375RF21 [6], 13.6 ± 4.4 nM. The “counted cell apoptosis or death (percentage sum of Q1, Q2 and Q4)” value in the data set on A375RF21 [7] is given as 11.8±3.0%. Also, the “TGI (%)” value with A375RF21 xenograft (12da 10 mg/kg, vemurafenib 20 mg/kg, i.p. once per day 5 days per week, after 3 weeks of treatment, n=7) was 38.12% and 38.12 ± 6.14%; with A375RF21 xenograft (setting [9]) it was 72.72% and 72.72 ± 8.29%. For the same compound, the “Tumor weight (gram)” value with A375RF21 xenograft (12da 10 mg/kg, vemurafenib 20 mg/kg, after 3 weeks of treatment, n=7) was found to be 1.77 ± 0.11 gram; in the data set with A375RF21 xenograft (setting [9]) it was 0.51 ± 0.12 gram. Also, the “metastasis of melanoma to the lungs” value in data set [2] is on record as “inhibition”.
In the case of `COc1cc(-c2c[nH]c(C(=O)c3ccccc3)n2)cc(OC)c1OC` [70x], the IC50 in the data set with LNCaP came out at 195 nM; in the data set on Du 145, 1300 nM; in the data set on PPC-1, 408 nM; in the data set on MDA-MB-435, 4600 nM; in the data set with MDA-MB-435/LCC6MDR1, 5770 nM; with PC-3 it was 632 nM.
With `COc1cc(C(=O)c2c[nH]c(-c3ccc(O)cc3)n2)cc(O)c1OC` [12kc], the IC50 is 5600 nM in the data set with B16-F1 and 6400 nM with WM164.
Take `COc1cc(Cc2nc(-c3ccccc3)c[nH]2)cc(OC)c1OC` [102a]: the IC50 in the data set on A375 [8] was 10200 ± 392 nM.
